Measurements from USRE39682E1, “Farnesyl derivatives and pharmaceutical compositions containing them” (Ramot at Tel Aviv University Ltd., priority 1993, dated 2007).
Read-outs that look alike come from different tables or passages of the source.

Legend:
PPMTase = biological target: T1, PPMTase (Rattus norvegicus, UniProt Q9WVM4); assay: PPMTase activity (AFC methylation) in membranes of ras-transformed rat1 cells; format: biochemical; conditions: ras-transformed rat fibroblast membranes; for PPMTase activity: with inhibitor
T1 construct: PPMTase activity in membranes obtained from four different cell lines as determined by methylation of AFC; endogenous in cells; host or cells: ras-transformed rat1 (EJ) cell membranes
Protocol: (§1) Charles River adult male rats were used for preparation of cerebellar synaptosomal membranes. Cerebella were removed after decapitation and homogenized in 0.32M sucrose containing 50 mM Tris-HCl pH 7.4, 3 mM EDTA, 1 mM EGTA, 5 unit/ml aprotinin and 5 μg/ml pepstatin (buffer A) to yield 10% (w/v) homogenates. Nuclear fractions were obtained by 10 min. 600×g centrifugation and synaptosomal fractions were obtained by 20 mins. 14,500×g centrifugation. Membranes of the various cell types used were prepared in the above buffer A by a 60 min. spin at 100,000×g.
Pellets were resuspended in the homogenization buffer and stored at −70° C. Methylation assays were performed at 37° C. in 50 mM Tris-HCl buffer pH 7.4, using 75-125 μg protein, 25 μM [methyl-^3H]AdoMet ([…]) as a methyl donor and 150 μM AFC as a methylation substrate (prepared as a stock solution in DMSO) in a total volume of 50 μl. DMSO concentration in all assays was 4%.
(§2) Reactions were terminated after 10 min. by adding 500 μl chloroform methanol (1:1) and a subsequent addition of 250 μl H2O, mixing them and subsequently by phase separation. A portion of 125 μl of the chloroform phase was dried down at 40° C. and 200 μl of 1M NaOH/1% SDS solution were added thereto. The [^3H]methanol thus formed was counted by the vapor phase equilibrium method as described previously (Hakiai et al., Cell Mol. Neurobiol., 11, 415-431, (1991); Lenner et al., Cell Mol. Neurbiol., 12, 333 and 3351, (1992); Ben-Baruch et al., Biochem. Biophy. Res. Commun., 195, 282-288, (1993)). Typical background counts (i.e. counts of methylation with no AFC added) were 50-100 cpm while typical methylation counts with AFC as a substrate yielded 500 to 6000 cpm. Assays were performed in triplicate and background counts subtracted. Methylation of endogenous substrates, in intact cells, and [α-^32P] GTP-blot overlay assays and gel electrophoreses were performed as detailed previously (Hakiai et al., supra (1991); Lenner et al., supra (1993)).
The B16F10 melanoma cells were grown in RPMI 1640/10% fetal calf serum, 2 mM glutamine and antibiotics as for the HEC1A cells, at the density of 1×10^4 cells/well. All four types of cells were used for determining the PPMTase activity using AFC as the substrate as described above for synaptosomal membrane preparation. Usually 150 μg membranal proteins were used in the assay for a 10 min. incubation time.

[1] = system: Ha-ras-transformed rat1 cells; assay: Growth of ras-transformed rat1 cells (cell counting); format: cell-based, rat; conditions: for EC50: Rattus norvegicus, 168 h, day 7 of drug treatment, estimated from dose response curves, read-out: Inhibition of rab-transformed rat1 cell growth EC50
From the text: The cell lines employed were rat1, -EJ, which are rat1 cells stably expressing Val- 12 activated human Ha-ras gene (Land H. et al., Nature, 304, 596-602, (1983)); V-raf-3T3, which are 3T3 cells stably expressing the V-raf gene (Xu, N., et al., Proc. Natl. Acad. Sci., 90, 6741-6745); RB-22, which are 3T3 cells stably expressing the rat Erb-B2 gene (Peles, et al., EMBO J., 10, 2077-2086 (1991)) CO6O cells (SV40-CHO), which are CHE cells stably expressing the SV-40 T-antigen gene (Lavi, Proc. Natl. Acad. Sci., 78, 6144-6148 (1981)); human endometrial carcinoma cell line HEC1A, which are cells that express activated K-ras (Enomoto T., Cancer Res., 50, 6139-6145; mouse B16F10 melanoma cells, rat pheochromocytoma PC12 cells, […] cells CHE and COS cells.
HEC1A, V-raf-3T3 and SV40-CHE cells were grown in Dulbecco's modified Eagle medium (DMEM) containing 10% fetal calf serum (FCS), 4 mM L-glutamine, 10 μg/ml streptomycin and 10 U/ml penicillin. Rat1 and -EJ cells were grown in the same medium except that it was supplemented with 12.5 U/ml nyostatin. RB-22 cells were grown in modified DMEM (1 mM sodium pyruvate, 20 mM sodium bicarbonate)/10% FCS containing 4 mM L-glutamine, […] streptomycin, 10 U/ml penicillin. PC-12 cells were grown in DMEM 15% FCS/5% horse serum and the above noted antibiotics.
HEC1A cells were plated in 24 well plates at a density of 5×10^3 cells per well and fed with 1 ml of medium. The cells were grown at 37° C. in a humidified atmosphere of 95%/5% air/CO2. All other cell types employed were plated in 24 well plates at a density of 2×10^3 cells per well and fed with the appropriate medium.
Cultures were treated with farnesyl derivatives or with solvent either 3 hrs following plating or one day after plating as indicated. […] Control cultures received 0.1% DMSO only. Cultures were fed on days 6, 7 and 9 of the experiment with the drugs or with solvent-containing media.
Cells were counted following 3, 7 and 10 days of beginning of treatments with drugs. For counting, cells were detached from plates with trypsin/EDTA, and collected by a low speed spin in the presence of DMEM/10% FCS. The pelleted cells were resuspended in a small volume of DMEM/10% FCS and counted under the microscope. Viability of cells was estimated by staining with (3-(4,5-dimethylthiosol-2-yl)-2,5-diphenyltetrazolium bromide (MTT) and microscopic examination of the stained and unstained cells, or spectrophotometric estimation (OD490, 590) of the total stain in each well. Non viable cells were estimated by the trypan blue exclusion method.
Cells were plated at a density 2×10^3/well and received either solvent or drugs one day later. Following 3, 7, or 10 days of the drugs-treatment as described above, cells were collected and the number of cells in each well was estimated by direct counting. […] The effect was apparent after a delay of at least three days. About 40-60% inhibition of cell growth was induced either by FTA or by FTS observed on days 7 and 10 of the treatment.

[2] = biological target: T2, prenylated protein methyltransferase (PPMTase) (Rattus norvegicus, UniProt Q9WVM4); assay: Methylation of AFC by PPMTase in rat cerebellar synaptosomal membranes; format: biochemical; conditions: for IC50: synaptosomal membranes, FIG. 2, read-out: IC50 (concentration resulting in 50% inhibition of AFC methylation)
T2 construct: from tissue; host or cells: rat cerebellum, synaptosomal membranes
From the text: As a substrate for methylation served AFC and as the donor of methyl served [methyl-H^3] labelled AdoMet. As a source of the enzyme prenylated protein methyltransferase (PPTMase) served rat cerebellar membranes which are known to be membranes enriched with this enzyme (Ben-Baruch, Biochem. Biophys. Res. Commun., 195, 282-288. (1993)).
as §1
Pellets were resuspended in the homogenization buffer and stored at −70° C. Methylation assays were performed at 37° C. in 50 mM Tris-HCl buffer pH 7.4, using 75-125 μg protein, 25 μM [methyl-^3H]AdoMet ([…] in DMSO) in a total volume of 50 μl. DMSO concentration in all assays was 4%.
as §2

[3] = Table II, given as range, read-out: Ki
[4] = from FIG. 2 curves, 100 μM AFC, read-out: inhibition constant (Ki)

T1 sequence (Q9WVM4 whole entry): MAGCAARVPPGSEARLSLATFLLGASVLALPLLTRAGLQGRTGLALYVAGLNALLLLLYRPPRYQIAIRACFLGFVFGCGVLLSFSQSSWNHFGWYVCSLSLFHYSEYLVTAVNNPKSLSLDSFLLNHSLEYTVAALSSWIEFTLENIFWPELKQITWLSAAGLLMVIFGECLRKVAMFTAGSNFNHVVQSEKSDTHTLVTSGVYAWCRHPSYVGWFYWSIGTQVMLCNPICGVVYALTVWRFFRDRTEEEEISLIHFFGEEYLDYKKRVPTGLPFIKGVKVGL
T2 sequence (Q9WVM4 whole entry): as above

Structure (SMILES) | % Inhibition (PPMTase) | PPMTase activity (PPMTase) | EC50 [1] | drug concentration of maximum inhibition of cell growth ([1]; days 7 and 10 of treatment) | [3H-methyl]ester formed ([2]; 100 μM AFC + 200 μM inhibitor) | IC50 ([2]; 100 μM AFC) | Ki [2, 3] | Ki [2, 4] | active at concentrations times lower than those of FTA [1] | Number of cells (% of control) ([1]; Hs-cis-transformed rat1, 25 μM, day 5) | inhibition of ras-transformed rat1 cell-growth ([1]; drugs on the very same day of plating) | serves as substrate for PPMTase methylation [2] | [3H-methyl]ester formed ([2]; 200 μM of the substance alone as substrate)
CC(C)=CCC/C(C)=C/CC/C(C)=C/CSCC(=O)O [FTA, S-trans, trans-farnesylthioacetic acid, reference compound] | 72% | 1.9 pmol/min/mg protein | 25 to 50 µM | 50 µM | 320 ± 50 cpm/assay | 23 µM | 5.7 to 10.5 µM | 4 µM |  |  |  |  | 
CC(C)=CCC/C(C)=C/CC/C(C)=C/CSc1ccccc1C(=O)O [FTS, (3,7,11-trimethyl-dodeca-2,6,10-trienyl)-2-thiobenzoic acid] | 73% | 1.8 pmol/min/mg protein | 5 to 10 µM |  | 280 ± 30 cpm/assay | 10 µM | 1.5 to 4.2 µM | 1.5 µM | 10 times | 52 ± 4 % of control | observed already after 3 days in culture | does not serve as a substrate | 30 ± 10 cpm/assay
